According to patent publication US9687553B2, “Polymeric nanocarriers with linear dual response mechanism” (priority 2010, dated 2017):

Experiments:
[1] = Relaxivity versus time, bench top contrast agent analyzer; format: physicochemical
Description: To probe the relationship between degradation and relaxivity further, real-time T1 measurements were taken of the polymer solutions using a Bruker minispec mq60 bench top contrast agent analyzer. This machine is able to take rapid T1 measurements over a long duration, allowing for real-time data to be collected. Following data collection, a relationship between T1 and relaxivity can be made, and the relaxivity can be plotted versus time. The relaxivity measurements were then normalized for direct comparison between the two polymer CAs.
Samples were first incubated at 37° C. and various pH values and then measured continuously over time.
To investigate the change in relaxivity over time at different pH values further, continuous T1 measurements were taken using a bench top contrast agent analyzer. Using this machine, the T1 time of a 200 μl solution in an NMR tube is able to be measured. Furthermore, the measurement duration is short, allowing for a more real-time investigation of the T1 time. Finally, the software allows for sequential measurements to be performed, allowing for over 24 h of continuous T1 data to be taken.
Solutions of both polymer contrast agents were prepared at the desired pH values and pre-incubated for 5 min at 37° C. prior to T1 measurements. […]

[2] = Gd chelate; cited from earlier work
HCT116 cells = experiment: Transfection and EGFP expression, microscopy and flow cytometry; format: cell-based; conditions: 300 nM bafilomycin A1, nanocarrier delivery
Method: Expression and transfection efficiency of the HCT116 cells was tested by incubating them for 4 hr before washing excess nanocarriers and incubating cells in fresh media for 48 hr. […] PLGA-treated cells only had 2% of the cell population with signal intensity above background.
Immediate burst degradation and release of DNA from the dual pH-responsive nanocarriers only occurs in an environment of low pH. The endosome's low pH offers the appropriate stimulus to solubilize the polymer, resulting in an accelerated degradation via ketal hydrolysis. Bafilomycin A1, an inhibitor of V-ATPase, blocks the acidification of endosomes and has been previously used to characterize the mechanism of release of pH dependent polyplexes and nanocarriers. […] EGFP expression via nanocarrier delivery in HCT116 cells, measured by mean fluorescence, was affected by the presence of bafilomycin A1, causing 66% reduction in signal relative to non-treated cells (FIG. 37). […]
HCT116 cells were plated at a ˜50% density in a 24 well culture plate and allowed to attach overnight. […] The cells were then incubated for 48 hours and subsequently analyzed by fluorescence microscopy (Nikon) or flow-cytometry (Accuri C6) to detect green fluorescence. […] For flow cytometry, cells were first trysonized for […] followed by two washes with PBS and analyzed immediately. […]

In the case of O=C([O-])CN(CCN(CC(=O)[O-])CC(=O)O)CCN(CC(=O)[O-])CC(=O)O.[Gd+3] [Gd-DTPA], the relaxivity as measured [1] is given as 3.64 ± 0.12 mM⁻¹ s⁻¹ and the “stability constant (log K)” value [2] is given as 22.46.

For CO/C1=C\C(C)=C\[C@@H](C)[C@@H](O)[C@@H](C)C/C(C)=C/C=C/[C@H](OC)[C@@H]([C@@H](C)[C@@H](O)[C@H](C)[C@@]2(O)C[C@@H](O)[C@H](C)[C@@H](C(C)C)O2)OC1=O [bafilomycin A1], the “reduction in EGFP signal (mean fluorescence) relative to non-treated cells” value (HCT116 cells) was 66%.

In the case of Gd-DTPA-bisamide, the “stability constant (log K)” value [2] is listed as 16.84.
